Laboratory results published in patent publication US11697639B2, “Quaternary ammonium salt compound, preparation method therefor and use thereof” (WEST CHINA HOSPITAL, SICHUAN UNIVERSITY, priority 2018, dated 2023).

test system: rat's sciatic nerve; experiment: Rat sciatic nerve block, motor function by Postural Extensor Thrust (PET); type: in vivo; conditions: 0.5 mL injected near sciatic nerve, test drugs 20 mmol/mL in distilled water, lidocaine 2%, levobupivacaine 0.75%
Procedure: (§1) For the dosage, the lidocaine group is 2% aqueous solution, the levobupivacaine group is 0.75% aqueous solution, and test drug groups are all distilled water solution at the concentration of 20 mmol/mL.
(§2) The injection volume for each rat or the control was 0.5 mL, which was guided by a nerve locator and injected near the rat's sciatic nerve. Using von Frey stimulator, the rats were stimulated the soles of the feet in the injected side, to observe the effect of local anesthesia. Meanwhile, Postural Extensor Thrust (PET) was used to evaluate the motor function of the rat: the rat was lifted vertically and the hindlimb in the injected side pedaled on the platform of the electronic balance. […] When the limb was completely paralyzed, the reading was the limb's own weight, about 20 g. If the measured value was more than half of the difference between the baseline and the limb weight, the motor function was regarded as recovery, and if the value was less than or equal to this difference, the motor function was regarded as loss.

SMILES	Time of motor block (Median) [h]
CCC[N+](C)(CCCCCN1CCCCC1C(=O)Nc1c(C)ccc(C#N)c1C)CC(=O)Nc1c(C)cccc1C (stereo not shown) [example 8]	18
CCCC[N+](CC)(CCOCCN1CCCCC1C(=O)Nc1c(C)cccc1C)CC(=O)Nc1c(C)cccc1O (stereo not shown) [example 5]	11
CCCC[N+](CC)(CCCCCCN1CCCCC1C(=O)Nc1c(C)cc([N+](=O)[O-])cc1C)CC(=O)Nc1c(C)cc(C(=O)O)cc1C.[Br-] (stereo not shown) [example 27]	22
CCC[N+](CC)(CCCCCCCCN1CCCC[C@@H]1C(=O)Nc1c(C)cccc1C)CC(=O)Nc1c(C)cccc1C.O=C(O)CC(O)(CC(=O)O)C(=O)O.[Br-] (stereo partly shown) [example 25]	24
CCCCN(C(=O)[C@@H]1CCCCN1CCCCCCC[N+](CC)(CCC)CC(=O)Nc1c(C)cccc1C)c1c(C)cccc1C.[Br-] (stereo partly shown) [example 23]	28
CCC[N+](CC)(CCCCCCCCN1CCCCC1C(=O)Nc1c(C)cccc1C)CC(=O)Nc1c(C)ccc(Br)c1C (stereo not shown) [example 4]	10
CCC[N+](CC)(CCCCCCCN1CCC(OC)C[C@@H]1C(=O)Nc1c(C)cccc1C)CC(=O)Nc1c(C)cccc1C.[Br-] (stereo partly shown) [example 22]	18
CCC[N+](CC)(CCCCCCCCN1CCCCC1C(=O)Nc1c(C)cccc1C)CC(=O)Nc1c(C)cccc1C.[Br-] (stereo not shown) [example 17]	17
CCC[N+](CC)(CCCCCCCCN1CCCCC1C(=O)Nc1c(C)cccc1C)CC(=O)Nc1c(C)cccc1OC (stereo not shown) [example 7]	10
CCC[N+](CC)(CCCCCCCN1CCCCC1C(=O)Nc1c(C)ccc(Cl)c1C)CC(=O)Nc1c(C)ccc(C#N)c1C.[Br-] (stereo not shown) [example 24]	16
CC[N+](C)(CCCN1CCCCC1C(=O)Nc1c(C)cccc1C)CC(=O)Nc1c(C)cccc1C.O=C(O)c1ccccc1.[Br-] (stereo not shown) [example 14]	18
CC[N+](C)(CCCN1CCCCC1C(=O)Nc1c(C)cccc1C)CC(=O)Nc1c(C)cccc1C (stereo not shown) [example 1]	18
CCC[N+](CC)(CCCCCCCCN1CCCCC1C(=O)Nc1c(C)cc(OC)cc1C)CC(=O)Nc1c(C)ccc([N+](=O)[O-])c1C.[Br-] (stereo not shown) [example 29]	28
CCC[N+](CC)(CCCCCCCCN1CCCCC1C(=O)Nc1c(C)cccc1C)CC(=O)Nc1c(C)cccc1C.Cl.[Br-] (stereo not shown) [example 15]	25

test system: back skin of rat; experiment: Local anesthetic effect by subcutaneous infiltration in rat back skin (Von Frey 100 g); type: in vivo; conditions: 0.5 mL in saline, compound 6 mmol/L, bupivacaine 23 mmol/L, 10 rats per compound
Procedure: After the back of rat weighing 250-300 g was shaved and disinfected, a circle with a diameter of about 1.5 cm was drawn on the side of the exposed back, and the circle is divided into 6 equal parts. […] Among the Von Frey fiber yarns, the one with a strength of 100 g was bound to the needle for local skin stimulation. One minute After the drug was injected, the above method was used to stimulate in 6 divisions. […] If back skin contraction was observed, the local anesthetic effect was considered as loss. […] Each compound was tested with 10 rats.

SMILES	Lasting time of local anesthesia (Median) [h]	Local anesthesia onset time (Median) [min]
CCC[N+](C)(CCCCCN1CCCCC1C(=O)Nc1c(C)ccc(C#N)c1C)CC(=O)Nc1c(C)cccc1C (stereo not shown) [example 8]	33	1
CCCC[N+](CC)(CCOCCN1CCCCC1C(=O)Nc1c(C)cccc1C)CC(=O)Nc1c(C)cccc1O (stereo not shown) [example 5]	68	1
CCC[N+](CC)(CCCCCCCCN1CCCCC1C(=O)Nc1c(C)cccc1C)CC(=O)Nc1c(C)ccc(Br)c1C (stereo not shown) [example 4]	44	2
CCC[N+](CC)(CCCCCCCCN1CCCCC1C(=O)Nc1c(C)cccc1C)CC(=O)Nc1c(C)cccc1OC (stereo not shown) [example 7]	57	1
CC[N+](C)(CCCN1CCCCC1C(=O)Nc1c(C)cccc1C)CC(=O)Nc1c(C)cccc1C (stereo not shown) [example 1]	34	1

test system: rat's sciatic nerve; experiment: Rat sciatic nerve block, sensory block tested with von Frey stimulator; type: in vivo; conditions: 0.5 mL injected near sciatic nerve, test drugs 20 mmol/mL in distilled water, lidocaine 2%, levobupivacaine 0.75%, 8 rats per group
Procedure: as §1, §2

SMILES	Local anesthesia onset time (Median) [min]
CCC[N+](C)(CCCCCN1CCCCC1C(=O)Nc1c(C)ccc(C#N)c1C)CC(=O)Nc1c(C)cccc1C (stereo not shown) [example 8]	1
CCCC[N+](CC)(CCOCCN1CCCCC1C(=O)Nc1c(C)cccc1C)CC(=O)Nc1c(C)cccc1O (stereo not shown) [example 5]	6
CCCC[N+](CC)(CCCCCCN1CCCCC1C(=O)Nc1c(C)cc([N+](=O)[O-])cc1C)CC(=O)Nc1c(C)cc(C(=O)O)cc1C.[Br-] (stereo not shown) [example 27]	2
CCC[N+](CC)(CCCCCCCCN1CCCC[C@@H]1C(=O)Nc1c(C)cccc1C)CC(=O)Nc1c(C)cccc1C.O=C(O)CC(O)(CC(=O)O)C(=O)O.[Br-] (stereo partly shown) [example 25]	5
CCCCN(C(=O)[C@@H]1CCCCN1CCCCCCC[N+](CC)(CCC)CC(=O)Nc1c(C)cccc1C)c1c(C)cccc1C.[Br-] (stereo partly shown) [example 23]	2
CCC[N+](CC)(CCCCCCCCN1CCCCC1C(=O)Nc1c(C)cccc1C)CC(=O)Nc1c(C)ccc(Br)c1C (stereo not shown) [example 4]	1
CCC[N+](CC)(CCCCCCCN1CCC(OC)C[C@@H]1C(=O)Nc1c(C)cccc1C)CC(=O)Nc1c(C)cccc1C.[Br-] (stereo partly shown) [example 22]	3
CCC[N+](CC)(CCCCCCCCN1CCCCC1C(=O)Nc1c(C)cccc1C)CC(=O)Nc1c(C)cccc1C.[Br-] (stereo not shown) [example 17]	5
CCC[N+](CC)(CCCCCCCCN1CCCCC1C(=O)Nc1c(C)cccc1C)CC(=O)Nc1c(C)cccc1OC (stereo not shown) [example 7]	2
CCC[N+](CC)(CCCCCCCN1CCCCC1C(=O)Nc1c(C)ccc(Cl)c1C)CC(=O)Nc1c(C)ccc(C#N)c1C.[Br-] (stereo not shown) [example 24]	1
CC[N+](C)(CCCN1CCCCC1C(=O)Nc1c(C)cccc1C)CC(=O)Nc1c(C)cccc1C.O=C(O)c1ccccc1.[Br-] (stereo not shown) [example 14]	3
CC[N+](C)(CCCN1CCCCC1C(=O)Nc1c(C)cccc1C)CC(=O)Nc1c(C)cccc1C (stereo not shown) [example 1]	3
CCC[N+](CC)(CCCCCCCCN1CCCCC1C(=O)Nc1c(C)cc(OC)cc1C)CC(=O)Nc1c(C)ccc([N+](=O)[O-])c1C.[Br-] (stereo not shown) [example 29]	1
CCC[N+](CC)(CCCCCCCCN1CCCCC1C(=O)Nc1c(C)cccc1C)CC(=O)Nc1c(C)cccc1C.Cl.[Br-] (stereo not shown) [example 15]	2

same assay, conditions: 0.5 mL injected near sciatic nerve, test drugs 20 mmol/mL in distilled water, lidocaine 2%, levobupivacaine 0.75%, von Frey

SMILES	Time of sensory block (Median) [h]
CCC[N+](C)(CCCCCN1CCCCC1C(=O)Nc1c(C)ccc(C#N)c1C)CC(=O)Nc1c(C)cccc1C (stereo not shown) [example 8]	24
CCCC[N+](CC)(CCOCCN1CCCCC1C(=O)Nc1c(C)cccc1C)CC(=O)Nc1c(C)cccc1O (stereo not shown) [example 5]	28
CCCC[N+](CC)(CCCCCCN1CCCCC1C(=O)Nc1c(C)cc([N+](=O)[O-])cc1C)CC(=O)Nc1c(C)cc(C(=O)O)cc1C.[Br-] (stereo not shown) [example 27]	28
CCC[N+](CC)(CCCCCCCCN1CCCC[C@@H]1C(=O)Nc1c(C)cccc1C)CC(=O)Nc1c(C)cccc1C.O=C(O)CC(O)(CC(=O)O)C(=O)O.[Br-] (stereo partly shown) [example 25]	32
CCCCN(C(=O)[C@@H]1CCCCN1CCCCCCC[N+](CC)(CCC)CC(=O)Nc1c(C)cccc1C)c1c(C)cccc1C.[Br-] (stereo partly shown) [example 23]	35
CCC[N+](CC)(CCCCCCCCN1CCCCC1C(=O)Nc1c(C)cccc1C)CC(=O)Nc1c(C)ccc(Br)c1C (stereo not shown) [example 4]	33
CCC[N+](CC)(CCCCCCCN1CCC(OC)C[C@@H]1C(=O)Nc1c(C)cccc1C)CC(=O)Nc1c(C)cccc1C.[Br-] (stereo partly shown) [example 22]	29
CCC[N+](CC)(CCCCCCCCN1CCCCC1C(=O)Nc1c(C)cccc1C)CC(=O)Nc1c(C)cccc1C.[Br-] (stereo not shown) [example 17]	24
CCC[N+](CC)(CCCCCCCCN1CCCCC1C(=O)Nc1c(C)cccc1C)CC(=O)Nc1c(C)cccc1OC (stereo not shown) [example 7]	28
CCC[N+](CC)(CCCCCCCN1CCCCC1C(=O)Nc1c(C)ccc(Cl)c1C)CC(=O)Nc1c(C)ccc(C#N)c1C.[Br-] (stereo not shown) [example 24]	24
CC[N+](C)(CCCN1CCCCC1C(=O)Nc1c(C)cccc1C)CC(=O)Nc1c(C)cccc1C.O=C(O)c1ccccc1.[Br-] (stereo not shown) [example 14]	32
CC[N+](C)(CCCN1CCCCC1C(=O)Nc1c(C)cccc1C)CC(=O)Nc1c(C)cccc1C (stereo not shown) [example 1]	24
CCC[N+](CC)(CCCCCCCCN1CCCCC1C(=O)Nc1c(C)cc(OC)cc1C)CC(=O)Nc1c(C)ccc([N+](=O)[O-])c1C.[Br-] (stereo not shown) [example 29]	33
CCC[N+](CC)(CCCCCCCCN1CCCCC1C(=O)Nc1c(C)cccc1C)CC(=O)Nc1c(C)cccc1C.Cl.[Br-] (stereo not shown) [example 15]	38
